Assay: Intracellular total glutathione (GSH)
Details: human
Procedure: Intracellular Glutathione (GSH) Levels: Intracellular glutathione levels were determined essentially as described by Griffith (1980) with modifications. At the end of the exposure period, the medium was removed from the cells and metaphosphoric acid (MPA) was added to each well. Plates were then shaken for 5 min at room temperature and stored at −20° C. until needed.
The sample plates were thawed just prior to analysis and centrifuged at >2000×g for at least 2 min. Sample aliquots were removed and transferred to a clean 96-well plate along with appropriate standard curve controls. Sample pH was neutralized just prior to analysis and each well received an aliquot of sodium phosphate reaction buffer containing EDTA, DTNB, NADPH, and glutathione reductase. The plates were mixed for 15-30 min at room temperature and glutathione content was determined calorimetrically with a Packard Fusion or equivalent reader at 415 nm.
Intracellular Glutathione (GSH) Levels: The assay is based on the concept that all GSH is oxidized to GSSG by DTNB reagent. Two molecules of GSH are required to make one molecule of GSSG. Total GSH was determined by reducing GSSG to 2GSH with glutathione reductase. A standard curve was prepared with oxidized glutathione (GSSG) over a range of concentrations. These concentrations are then converted to glutathione equivalents (GSX) essentially by multiplying the GSSG standard concentrations by 2. The amount of GSX expressed as pmoles/well was determined using the standard curve and regression analysis.
The test compound consisted of two parts mixed in a constant ratio of 5:1. The final test mixture consisted of Test mix 1 and Test mix 2, which were received as frozen solutions. The test mixture was tested in a ratio of 5:1 COMP A in five different cell types which included the following: SK-MEL28, human hepatocytes, HUVEC, C32, and NHEM cells. Cells were seeded into 96-well plates and cultured in medium containing 10% bovine serum. Following an equilibration period of 48 hr, the cells were treated with the test compound mix at concentrations of COMP A (μg/mL)=(250:50), (125:25), (25:12.5), (12.5:2.5), (2.5:1.25), (1.25:0.25), and (0.25:0.05) for 24 hr (overnight) at 37° C. in 5% CO2. […] Following an equilibration period of 4 hr, the cells were treated with the test compound mix at concentrations of COMP A (μg/mL)=(250:50), (125:25), (25:12.5), (12.5:2.5), (2.5:1.25), (1.25:0.25), and (0.25:0.05) for 24 hr (overnight) at 37° C. in 5% CO2.
Experimental Protocol: The test compounds were shipped on dry ice for testing. The compounds were stored frozen at −80° C. until needed. Dosing solutions were prepared in complete culture medium. SK-MEL28, human hepatocytes, HUVEC, C32, and NHEM cells were used as the test systems. Cells were seeded into 96-well plates and allowed to equilibrate for approximately 48 hr. Following the equilibration period the cells were exposed to the test compound mix at concentrations of COMP A (μg/mL)=(250:50), (125:25), (25:12.5), (12.5:2.5), (2.5:1.25), (1.25:0.25), and (0.25:0.05). Solubility was determined by Nephalometry techniques immediately after dosing and prior to harvesting the cells at 24 hr. Following the exposure period, the cells or their supernatant (culture medium) were analyzed for changes in cell proliferation, membrane leakage, mitochondrial function, oxidative stress, and apoptosis. The resultant exposure concentration response curves were graphed and analyzed for determining the concentration that produced a half maximal response or TC50.

**Q.** Which CC50 at 24 h (C32 cells) does the source give for `CC[C@@]1(O)C(=O)OCc2c1cc1n(c2=O)Cc2cc3ccccc3nc2-1` [CAMPTOTHECIN, Camptothecin] here?
**A.** Its CC50 at 24 h is 1000 nM.

**Q.** What about the CC50 at 24 h (HUVEC cells) of the same compound?
**A.** The CC50 at 24 h was 1000 nM.

**Q.** And the CC50 at 24 h (human hepatocytes)?
**A.** The CC50 at 24 h was 44000 nM.

Source: patent US7615361B2, “Toxicity screening methods” (Ceetox, Inc., priority 2006, dated 2009)
